Experimental data published in ChEMBL document CHEMBL3272224, “Synthesis and hypotensive activity of N-alkyl-N"-cyano-N'-pyridylguanidines” (J Med Chem, 1978).

What was measured:
[1] = Toxicity in po dosed mouse assessed as mortality after 7 days; settings: in vivo
Rattus norvegicus = experiment: Hypotensive activity in po dosed spontaneously hypertensive Wistar-Okamoto rat assessed as dose required to cause 30 mmHg fall of blood pressure administered for 5 days; type: functional; settings: 120 h, read-out: MED

SMILES	LD50 at 168 h [1] [mg/kg]	minimal effective dose (Rattus norvegicus) [mg/kg]
CO/N=C(/Nc1cccnc1)NC(C)(C)C	> 1000	50
N#CN/C(=N\C1CCCCC1)Nc1ccccn1	1000	> 35
CC(C)(C)C(C)(C)/N=C(\NC#N)Nc1cccnc1	> 1000	50
CCC(C)(C)N/C(=N\c1cnccn1)Nc1cccnc1	800	25
CC(=O)Nc1ccc(N/C(=N/C#N)NC(C)(C)C)cc1	> 1000	> 50
CC(C)C(/N=C(\NC#N)Nc1ccncc1)C(C)C	250	8
CCC(C)(C)/N=C(\NC#N)Nc1c(C)cc(C)nc1C	800	> 25
CCC(C)(C)/N=C(\Nc1cccnc1)Nc1nccs1	> 1000	20
CC(/N=C(\NC#N)Nc1ccncc1)C1CC1 (stereo not given)	200	3
CC(C)CC(C)(C)/N=C(\NC#N)Nc1ccncc1	> 1000	20
CC(C)C(C)(C)/N=C(\NC#N)Nc1cccnc1	> 1000	1
CC(/N=C(\NC#N)Nc1ccncc1)c1ccccc1 (stereo not given)	600	10
CCC(CC)(CC)/N=C(\NC#N)Nc1ccncc1	> 1000	2.5
N#CN/C(=N\Cc1ccco1)Nc1cccnc1	> 1000	20
CC(C)C(/N=C(\NC#N)Nc1cccnc1)C(C)C	> 1000	5
